Read-outs that look alike come from different tables or passages of the source.
Target: hcGAS (Homo sapiens, UniProt Q8N884)
Test: hcGAS LCMS assay (direct measurement of cGAMP production by LC/MS)
Assay type: biochemical
Experimental: cGAS catalyzes the cyclization of ATP and GTP to produce cGAMP, which is the activating ligand of STING. Human cGAS (hcGAS) inhibition can thus be quantified by measuring how much cGAMP is formed either indirectly, by monitoring ATP-depletion as in the hcGAS Kinase-Glo assay (as described below), or directly, such as using the hcGAS LCMS assay (as described below).
2. hGAS LCMS Assay Conditions
Compounds were tested for their hcGAS inhibition activity using direct measurement of cGAMP production by LC/MS. Briefly, compounds were incubated with enzyme and substrates for 4 hours (see Table C), before the reaction was stopped with 3 volumes of 70/30 Acetonitrile/H2O mix containing 0.15 uM cGAMP-^13C10^15N5 as internal standard and mixed for 5 mmn. After centrifugation (3700 rpm, […], […]), 100 uL of each reaction was collected and mixed to equal volume of acetonitrile (MeCN). Samples were then analyzed on Qexactive (Column: XBridge BEH Amide Column, 130 Å, 3.5 μm, 3 mm×50 mm. Mobile phase A: 10 mM Ammonium acetate in 95/5 H2O/MeCN (0.5% DMSO), Mobile phase B: MeCN (0.5% DMSO).
The results of the assay, expressed as IC50 values, are reported in Table D with the following designations: A represents an IC50 value <0.005 μM (with A1 representing an IC50 value <0.0005 μM, A2 representing an IC50 value ≥0.0005 μM and <0.001 μM, and A3 representing an IC50 value ≥0.001 μM and <0.005 μM); B represents an IC50 value ≥0.005 μM and <0.02 μM; C represents an IC50 value ≥0.02 μM and <0.06 μM; and D represents an IC50 value ≥0.06 μM.

[1] = 4 h incubation with enzyme and substrates, cGAMP production by LC/MS, class symbols, read-out: hcGAS LCMS IC50

hcGAS, sequence (Q8N884 whole entry): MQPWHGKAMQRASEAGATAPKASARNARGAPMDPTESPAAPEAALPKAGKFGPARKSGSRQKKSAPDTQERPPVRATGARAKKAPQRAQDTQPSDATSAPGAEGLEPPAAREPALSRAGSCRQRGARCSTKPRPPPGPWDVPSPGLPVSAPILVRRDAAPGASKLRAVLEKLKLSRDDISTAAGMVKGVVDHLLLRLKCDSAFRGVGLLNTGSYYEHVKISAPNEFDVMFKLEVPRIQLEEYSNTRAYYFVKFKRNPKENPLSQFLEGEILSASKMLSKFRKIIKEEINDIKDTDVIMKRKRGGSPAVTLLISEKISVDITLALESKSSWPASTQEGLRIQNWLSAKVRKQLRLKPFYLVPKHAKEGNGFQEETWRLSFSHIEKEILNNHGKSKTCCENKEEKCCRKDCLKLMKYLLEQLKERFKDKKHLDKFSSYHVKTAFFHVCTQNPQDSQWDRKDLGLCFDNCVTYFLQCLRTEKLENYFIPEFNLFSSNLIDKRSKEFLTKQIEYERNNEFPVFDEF

Row | IC50 [1] [nM] | IC50 (hcGAS 0.5 nM, ATP 100 μM, GTP 100 μM, dsDNA 25 nM, pH 7.4, 4 h incubation, read-out: hcGAS inhibition IC50 (activity class, Table D)) [nM] | SMILES
1 | 1 to 5 | – | COc1cccc(OC)c1-c1cc(C(=O)Nc2nnc(-n3nccc3N)s2)oc(=O)c1OCC(CO)N1CCOCC1 (racemic) [Rac-85, N-(5-(5-amino-1H-pyrazol-1-yl)-1,3,4-thiadiazol-2-yl)-4-(2,6-dimethoxyphenyl)-3-(3-hydroxy-2-morpholinopropoxy)-2-oxo-2H-pyran-6-carboxamide]
2 | 1 to 5 | – | COc1cccc(OC)c1-c1cc(C(=O)Nc2nnc(-n3nccc3N)s2)oc(=O)c1OC(CO)CN1CCOCC1 (racemic) [Rac-87, N-(5-(5-amino-1H-pyrazol-1-yl)-1,3,4-thiadiazol-2-yl)-4-(2,6-dimethoxyphenyl)-3-((1-hydroxy-3-morpholinopropan-2-yl)oxy)-2-oxo-2H-pyran-6-carboxamide]
3 | 0.5 to 1 | – | COc1cccc(OC)c1-c1cc(C(=O)Nc2nnc(-n3nccc3N)s2)oc(=O)c1O[C@@H]1CC[C@@H](O)C1 (relative stereo) [64A*/B*]
4 | 0.5 to 1 | – | COc1cccc(OC)c1-c1cc(C(=O)Nc2nnc(-n3nccc3N)s2)oc(=O)c1O[C@@H]1CC[C@H](O)C1 (relative stereo) [64C*/D*]
5 | 0.5 to 1 | – | COc1cccc(OC)c1-c1cc(C(=O)Nc2nnc(-n3nccc3N)s2)oc(=O)c1O[C@H]1CCC[C@@H]1O (single isomer, unassigned) [71A*]
6 | 0.5 to 1 | – | COc1cccc(OC)c1-c1cc(C(=O)Nc2nnc(-n3nccc3N)s2)oc(=O)c1O[C@@H]1CCC[C@H]1O (single isomer, unassigned) [71B*]
7 | 1 to 5 | – | COc1cccc(OC)c1-c1cc(C(=O)Nc2nnc(-n3nccc3N)s2)oc(=O)c1O[C@@H]1CCC[C@@H](O)C1 (single isomer, unassigned) [109A*]
8 | 0.5 to 1 | – | COc1cccc(OC)c1-c1cc(C(=O)Nc2nnc(-n3nccc3N)s2)oc(=O)c1O[C@H]1CCC[C@H](O)C1 (single isomer, unassigned) [109B*]
9 | 1 to 5 | – | COc1cccc(OC)c1-c1cc(C(=O)Nc2nnc(-n3nccc3N)s2)oc(=O)c1O[C@@H]1CCCC[C@H]1O (single isomer, unassigned) [110A*]
10 | 0.5 to 1 | – | COc1cccc(OC)c1-c1cc(C(=O)Nc2nnc(-n3nccc3N)s2)oc(=O)c1O[C@H]1CCCC[C@@H]1O (single isomer, unassigned) [110B*]
11 | 0.5 to 1 | – | COc1cccnc1-c1cc(C(=O)Nc2nnc(-n3nccc3N)s2)oc(=O)c1O[C@@H]1CC[C@H](O)C1 (single isomer, unassigned) [111A*]
12 | 0.5 to 1 | – | COc1cccnc1-c1cc(C(=O)Nc2nnc(-n3nccc3N)s2)oc(=O)c1O[C@H]1CC[C@@H](O)C1 (single isomer, unassigned) [111B*]
13 | 1 to 5 | – | COc1cccnc1-c1cc(C(=O)Nc2nnc(-n3nccc3N)s2)oc(=O)c1O[C@@H]1CC[C@@H](O)C1 (single isomer, unassigned) [112A*]
14 | 1 to 5 | – | COc1cccnc1-c1cc(C(=O)Nc2nnc(-n3nccc3N)s2)oc(=O)c1O[C@H]1CC[C@H](O)C1 (single isomer, unassigned) [112B*]
15 | 1 to 5 | – | COc1cccnc1-c1cc(C(=O)Nc2nnc(-n3nccc3N)s2)oc(=O)c1O[C@@H]1CCC[C@@H](OC)C1 (single isomer, unassigned) [113A*]
16 | 0.5 to 1 | – | COc1cccnc1-c1cc(C(=O)Nc2nnc(-n3nccc3N)s2)oc(=O)c1O[C@H]1CCC[C@H](OC)C1 (single isomer, unassigned) [113B*]

Row | IC50 [1] [nM] | IC50 (hcGAS 0.5 nM, ATP 100 μM, GTP 100 μM, dsDNA 25 nM, pH 7.4, 4 h incubation, read-out: hcGAS inhibition IC50 (activity class, Table D)) [nM] | SMILES
17 | ≥ 60 | – | COc1cccnc1-c1cc(C(=O)Nc2nnc(-n3nccc3N)s2)oc(=O)c1O[C@H]1CCC[C@@H](OC)C1 (single isomer, unassigned) [113C*]
18 | 5 to 20 | – | COc1cccnc1-c1cc(C(=O)Nc2nnc(-n3nccc3N)s2)oc(=O)c1O[C@@H]1CCC[C@H](OC)C1 (single isomer, unassigned) [113D*]
19 | < 0.5 | – | COCCOc1c(-c2c(Cl)cccc2OC)cc(C(=O)Nc2nnc(-n3nccc3N)s2)oc1=O (single isomer, unassigned) [Compound 15A*, (Ra)—N-(5-(5-amino-1H-pyrazol-1-yl)-1,3,4-thiadiazol-2-yl)-4-(2-chloro-6-methoxyphenyl)-3-(2-methoxyethoxy)-2-oxo-2H-pyran-6-carboxamide]
20 | < 0.5 | – | COCCOc1c(-c2c(Cl)cccc2OC)cc(C(=O)Nc2nnc(-n3nccc3N)s2)oc1=O (single isomer, unassigned) [Compound 15B*, (Sa)-N-(5-(5-amino-1H-pyrazol-1-yl)-1,3,4-thiadiazol-2-yl)-4-(2-chloro-6-methoxyphenyl)-3-(2-methoxyethoxy)-2-oxo-2H-pyran-6-carboxamide]
21 | < 0.5 | < 0.5 | COCCOc1c(-c2c(C)cccc2C#N)cc(C(=O)Nc2nnc(-n3nccc3N)s2)oc1=O (single isomer, unassigned) [Compound 24A*, (Ra)—N-(5-(5-amino-1H-pyrazol-1-yl)-1,3,4-thiadiazol-2-yl)-4-(2-cyano-6-methylphenyl)-3-(2-methoxyethoxy)-2-oxo-2H-pyran-6-carboxamide]
22 | < 0.5 | – | COCCOc1c(-c2c(C)cccc2C#N)cc(C(=O)Nc2nnc(-n3nccc3N)s2)oc1=O (single isomer, unassigned) [Compound 24B*, (Sa)-N-(5-(5-amino-1H-pyrazol-1-yl)-1,3,4-thiadiazol-2-yl)-4-(2-cyano-6-methylphenyl)-3-(2-methoxyethoxy)-2-oxo-2H-pyran-6-carboxamide]
23 | < 0.5 | – | COc1cccc(Cl)c1-c1cc(C(=O)Nc2nnc(-n3nccc3N)s2)oc(=O)c1OCCO (single isomer, unassigned) [Compound 34B*, (Ra)—N-(5-(5-amino-1H-pyrazol-1-yl)-1,3,4-thiadiazol-2-yl)-4-(2-chloro-6-methoxyphenyl)-3-(2-hydroxyethoxy)-2-oxo-2H-pyran-6-carboxamide]
24 | 0.5 to 1 | – | COc1cccc(OC)c1-c1cc(C(=O)Nc2nnc(-n3nccc3N)s2)oc(=O)c1OC[C@@H]1COCCO1 (single isomer, unassigned) [Compound 43A*]
25 | 0.5 to 1 | – | COc1cccc(OC)c1-c1cc(C(=O)Nc2nnc(-n3nccc3N)s2)oc(=O)c1OC[C@H]1COCCO1 (single isomer, unassigned) [Compound 43B]
26 | 0.5 to 1 | – | COc1cccc(OC)c1-c1cc(C(=O)Nc2nnc(-n3nccc3N)s2)oc(=O)c1O[C@@H](C)CO (single isomer, unassigned) [Compound 55A*]
27 | 0.5 to 1 | – | COc1cccc(OC)c1-c1cc(C(=O)Nc2nnc(-n3nccc3N)s2)oc(=O)c1O[C@H](C)CO (single isomer, unassigned) [Compound 55B*]
28 | 0.5 to 1 | – | COC[C@@H](O)COc1c(-c2c(OC)cccc2OC)cc(C(=O)Nc2nnc(-n3nccc3N)s2)oc1=O (single isomer, unassigned) [Compound 63B*]
29 | 0.5 to 1 | – | COc1cccc(OC)c1-c1cc(C(=O)Nc2nnc(-n3nccc3N)s2)oc(=O)c1OC[C@H](CO)OC [38A*, (S)-N-(5-(5-amino-1H-pyrazol-1-yl)-1,3,4-thiadiazol-2-yl)-4-(2,6-dimethoxyphenyl)-3-(3-hydroxy-2-methoxypropoxy)-2-oxo-2H-pyran-6-carboxamide]
30 | 0.5 to 1 | – | COc1cccc(OC)c1-c1cc(C(=O)Nc2nnc(-n3nccc3N)s2)oc(=O)c1OC[C@@H](CO)OC [38B*, (R)-N-(5-(5-amino-1H-pyrazol-1-yl)-1,3,4-thiadiazol-2-yl)-4-(2,6-dimethoxyphenyl)-3-(3-hydroxy-2-methoxypropoxy)-2-oxo-2H-pyran-6-carboxamide]
31 | < 0.5 | – | COc1cccc(OC)c1-c1cc(C(=O)Nc2nnc(-n3nccc3N)s2)oc(=O)c1O[C@H]1CCOC1 [52A*, (S)-N-(5-(5-amino-1H-pyrazol-1-yl)-1,3,4-thiadiazol-2-yl)-4-(2,6-dimethoxyphenyl)-2-oxo-3-((tetrahydrofuran-3-yl)oxy)-2H-pyran-6-carboxamide]
32 | 0.5 to 1 | – | COc1cccc(OC)c1-c1cc(C(=O)Nc2nnc(-n3nccc3N)s2)oc(=O)c1O[C@@H]1CCOC1 [52B*, (R)-N-(5-(5-amino-1H-pyrazol-1-yl)-1,3,4-thiadiazol-2-yl)-4-(2,6-dimethoxyphenyl)-2-oxo-3-((tetrahydrofuran-3-yl)oxy)-2H-pyran-6-carboxamide]

Row | SMILES | IC50 [1] [nM] | IC50 (hcGAS 0.5 nM, ATP 100 μM, GTP 100 μM, dsDNA 25 nM, pH 7.4, 4 h incubation, read-out: hcGAS inhibition IC50 (activity class, Table D)) [nM]
33 | COc1cccc(OC)c1-c1cc(C(=O)Nc2nnc(-n3nccc3N)s2)oc(=O)c1OC1CC(O)C1 (single isomer, unassigned) [Compound 57A, N-(5-(5-amino-1H-pyrazol-1-yl)-1,3,4-thiadiazol-2-yl)-4-(2,6-dimethoxyphenyl)-3-((1,3-trans)-3-hydroxycyclobutoxy)-2-oxo-2H-pyran-6-carboxamide] | 0.5 to 1 | –
34 | COc1cccc(OC)c1-c1cc(C(=O)Nc2nnc(-n3nccc3N)s2)oc(=O)c1OC1CC(O)C1 (single isomer, unassigned) [Compound 57B, N-(5-(5-amino-1H-pyrazol-1-yl)-1,3,4-thiadiazol-2-yl)-4-(2,6-dimethoxyphenyl)-3-((1,3-cis)-3-hydroxycyclobutoxy)-2-oxo-2H-pyran-6-carboxamide] | < 0.5 | –

Source: patent publication US20260327221A1, “INHIBITORS OF CYCLIC GMP-AMP SYNTHASE AND USES THEREOF” (Ventus Therapeutics U.S., Inc., priority 2023, published 2026)
